From US20220211796A1, “PEPTIDE ANTIBIOTICS AND METHODS OF USE THEREOF” (priority 2019, published 2022)
≈ marks a conversion by molar mass, not a printed value. Numbered stars: 1 amine (or outer) side, 2 acyl side, 3 side chain; on linkers, the order of the positions; unused ones are H or OH. Bridge positions count the residues as written; N and C are the ends. Square brackets hold non-standard residues; d marks the D form. Ends that are not written are not given here. Peptide text beside a SMILES is read from it. TBMB = c1c(C[*:1])cc(C[*:3])cc1C[*:2]

Key:
[1] = system: B. subtilis ATCC 6633; assay: microbe, parasite or virus in culture
Method: (§1) The L-peptides identified from five different phage display libraries were catalogued as described previously and selected sequences were synthesized in D-enantiomeric form by SPPS for further investigation in several biological assays.
(§2) MICs were determined according to a 96-well microdilution protocol outlined by the Clinical and Laboratory Standard Institute (CLSI) guideline with modifications for peptide antibiotics reported by Wiegand et al.^35 Two-fold serial peptide dilutions were performed to go from 2560 μg/ml to 5 μg/ml in0.2% BSA and 0.01% acetic acid buffer in 96-well polypropylene plates (COSTAR, #3879). Dilution of bacterial suspensions (1:200) of different bacterial strains that were grown until 0.5 McFarland standard were prepared to obtain a final inoculum concentration of 8×10^5 CFU/ml in Mueller-Hinton broth.

[2] = system: E. faecalis ATCC 29121; assay: microbe, parasite or virus in culture
Method: as §1, §2

[3] = system: S. aureus ATCC 6538; assay: microbe, parasite or virus in culture
Method: as §1, §2

[4] = system: low level vancomycin resistant E. faecium (vanB) ATCC 51299; assay: microbe, parasite or virus in culture
Method: as §1, §2

[5] = system: Methicillin-resistant S. aureus (MRSA) ATCC 43300; assay: microbe, parasite or virus in culture
Method: as §1, §2

[6] = system: high level vancomycin resistant E. faecium (vanA) ATCC 51559; assay: microbe, parasite or virus in culture
Method: as §1, §2

[7] = system: E. coli ATCC 25992; assay: microbe, parasite or virus in culture
Method: as §1, §2

[8] = system: human red blood cells (hRBC); assay: Hemolytic activity; type: cell-based; settings: concentrations up to 256 μg/ml
Method: Fresh red human blood cells (hRBC) were washed and centrifuged at 3000 rpm for 5 min at 4° C. with PBS until a clear solution was obtained. Two-fold serial dilutions of each peptide in PBS from 0.5 μg/ml to 256 μg/ml were incubated with 0.25% (v/v) hRBC suspension at 37° C. for 1 h, and then centrifuged for 5 min at 3500 rpm in 96-well plate. 50 μl of the supernatant from each well was diluted with 50 μl pure water, and the OD at 415 nm was measured using microplate reader. Melittin at the same concentrations (200 μg/ml for complete lysis) was used as a positive control. Percent hemolysis was calculated according to the equation: […]
where complete hemolysis was defined as the average hemolysis of all wells containing a final concentration of melittin ranging from 50 to 400 μg/ml. Experiments were performed as triplicates at different days.

[9] = system: several Gram-positive strains (with one Gram-negative strain as control); assay: MIC / antibiotic susceptibility, strains not singled out; type: cell-based; settings: vancomycin-sensitive bacteria
Method: as §1, §2

[10] = system: S. aureus; assay: Time-kill kinetic assay; type: cell-based; settings: 10×MIC, 5×MICs
Method: The bacteria-killing kinetics of peptides with S. aureus was measured at 5×MICs, and vancomycin was used as a positive control. An overnight culture of bacterial cells was re-suspended in fresh MH broth at density of 10^7 cells/ml, and cultured with peptides at 37° C. Viable colony forming units (CFUs) were counted by performing tenfold serial dilutions of the aliquot sample at intervals of 0, 1, 2, 4, 8, 12, and 24 hours after inoculation, and plated on MHB agar plates. Time-kill curves were plotted as Log10 (cfu ml^−1) versus time functions.

[11] = system: cell wall biosynthesis in S. aureus; assay: Accumulation of UDP-N-acetylmuramyl-pentapeptide precursor; type: cell-based; settings: 10-fold MIC, 1 h
Description: We next examined the effect of P14 and P15 on cell wall biosynthesis in live bacteria. Blockade of this biosynthetic pathway causes accumulation of the water soluble intracellular intermediate lipid II precursor UDP-MurNAc-L-Ala-D-γ-Glu-L-Lys-D-Ala-D-Ala.^40 This intermediate is detectable after extraction from the cytosol in response to antibiotic administration by chromatographic methods.
Accumulation of UDP-N-acetylmuramyl-pentapeptide precursor from S. aureus Accumulation of peptidoglycan precursor of S. aureus […] was analyzed in the presence of peptide antibiotics. Bacteria were grown at 37° C. till OD600 of 0.5 was attained. Ten times MICs of peptide antibiotics were added per ml of grown bacterial culture and allowed to stand for 1 h. After cooling the cells on ice, they were harvested by centrifugation at 4° C. for 15 min. Bacterial cells were suspended in distilled water, and then slowly stirred into boiling water for 15 min. The suspension was allowed to cool first at room temperature, then on ice. After centrifugation at 4° C. for 1 h, the supernatant was lyophilized. The lyophilized sample was dissolved in water, and pH was adjusted to 2 by addition of 20% H3PO4. The white precipitate was removed by centrifugation, and the supernatant was immediately subjected to RP-HPLC analysis and MWs were assessed by MALDI-TOF mass spectroscopy.

[12] = Table 6, low level vancomycin resistant E. faecium ATCC51299
[13] = Table 6, high level vancomycin resistant E. faecium ATCC51559

Compound	MIC B. subtilis ([1]; Table 6, B. subtilis ATCC6633) [µg/mL]	MIC E. faecalis ([2]; Table 6, E. faecalis ATCC29121) [µg/mL]	MIC S. aureus ([3]; Table 6, S. aureus ATCC6538) [µg/mL]	MIC VRE (vanB) [4, 12] [µg/mL]	MIC MRSA ([5]; Table 6, MRSA ATCC43300) [µg/mL]	MIC VRE (vanA) [6, 13] [µg/mL]	MIC E. coli ([7]; Table 6, E. Coli ATCC25992) [µg/mL]	further results
CC[C@@H](C)[C@H]1NC(=O)[C@@H](CC(N)=O)NC(=O)[C@@H](CC(=O)O)NC(=O)[C@H](N)CSSC[C@H](C(N)=O)NC(=O)[C@@H](C(C)C)NC(=O)[C@H]2CCCN2C(=O)[C@@H]([C@H](C)O)NC(=O)[C@@H](CCSC)NC1=O [P13, CDNIMTPVC] (H-[dC][dD][dN][dI][dM][dT][dP][dV][dC]-NH2; disulfide 1-9)	–	–	–	–	–	–	–	MIC B. subtilis ([1]; ATCC 6633): 64 µg/mL (≈ 64.5 µM); MIC E. faecalis ([2]; ATCC 29121): 128 µg/mL (≈ 129 µM); MIC S. aureus ([3]; ATCC 6538): 64 µg/mL (≈ 64.5 µM); MIC VRE (vanB) ([4]; Table 5, low level vancomycin resistant E. faecium ATCC 51299): >256 µg/mL; MIC MRSA ([5]; ATCC 43300): 64 µg/mL (≈ 64.5 µM); MIC VRE (vanA) ([6]; ATCC 51559): >256 µg/mL; MIC E. coli ([7]; ATCC 25992): >256 µg/mL
CSCC[C@H]1NC(=O)[C@@H](CC(=O)O)NC(=O)[C@H]2CSCc3cc(cc(c3)CSC[C@H](C(N)=O)NC(=O)[C@@H](Cc3c[nH]cn3)NC(=O)[C@@H](CC(C)C)NC1=O)CSC[C@@H](N)C(=O)N[C@H](CCC(N)=O)C(=O)N[C@H](Cc1ccc(O)cc1)C(=O)N[C@H](CC(N)=O)C(=O)N[C@H](CC(=O)O)C(=O)N2 [P16, COYNDCDMLHC] (H-[dC][dQ][dY][dN][dD][dC][dD][dM][dL][dH][dC]-NH2; linker 1-6-11 via TBMB)	64 (≈ 43.9 µM)	128 (≈ 87.8 µM)	64 (≈ 43.9 µM)	>256	128 (≈ 87.8 µM)	>256	>256	–
CC[C@@H](C)[C@H]1NC(=O)[C@@H](C(C)C)NC(=O)[C@H]2CSCc3cc(cc(c3)CSC[C@H](C(N)=O)NC(=O)[C@@H](CC(=O)O)NC1=O)CSC[C@@H](N)C(=O)N[C@H](CC(C)C)C(=O)N[C@H](CO)C(=O)N[C@H](CCC(N)=O)C(=O)N[C@H](Cc1ccccc1)C(=O)N2 [P17, CLSQFCVIDC] (H-[dC][dL][dS][dQ][dF][dC][dV][dI][dD][dC]-NH2; linker 1-6-10 via TBMB)	128 (≈ 103 µM)	>256	128 (≈ 103 µM)	>256	>256	>256	>256	–
CC(C)C[C@H]1NC(=O)[C@@H](CCC(N)=O)NC(=O)[C@@H](CO)NC(=O)[C@@H](CO)NC(=O)[C@@H](CO)NC(=O)[C@H]2CSCc3cc(cc(c3)CSC[C@H](C(N)=O)NC(=O)[C@@H](Cc3ccc(O)cc3)NC1=O)CSC[C@@H](N)C(=O)N[C@H]([C@H](C)O)C(=O)N[C@H](CCCNC(=N)N)C(=O)N[C@H](C(C)C)C(=O)N2 [P19, CTRVCSSSQLYC] (H-[dC][dT][dR][dV][dC][dS][dS][dS][dQ][dL][dY][dC]-NH2; linker 1-5-12 via TBMB)	128 (≈ 87.5 µM)	>256	128 (≈ 87.5 µM)	>256	>256	>256	>256	–
CC(C)[C@H]1NC(=O)CNC(=O)[C@@H](Cc2ccccc2)NC(=O)[C@H]2CSCc3cc(cc(c3)CSC[C@H](C(N)=O)NC(=O)[C@@H](CO)NC(=O)[C@@H](CCC(N)=O)NC1=O)CSC[C@@H](N)C(=O)NCC(=O)N[C@H](C)C(=O)N[C@H](CCC(N)=O)C(=O)NCC(=O)N2 [P20, CGAQGCFGVQSC] (H-[dC]G[dA][dQ]G[dC][dF]G[dV][dQ][dS][dC]-NH2; linker 1-6-12 via TBMB)	32 (≈ 25.1 µM)	256 (≈ 201 µM)	32 (≈ 25.1 µM)	256 (≈ 201 µM)	256 (≈ 201 µM)	>256	>256	–
CGGGICRTHNC [P18]	16	128	16	128	32	>256	>256	activity against vanB / low-level vancomycin-resistant strain [4]: moderate activity; lysis / toxicity on red blood cells [8]: neither caused lysis of erythrocytes; activity against vancomycin-sensitive bacterial strains [9]: excellent activity
CQTDVCQRTIC ([dC][dQ][dT][dD][dV][dC][dQ][dR][dT][dI][dC]; not fully specified (bridges); also: bicyclic, ring places and kind not given here) [P14, bicyclic D-peptide (library BC-A)]	–	–	–	–	–	–	–	killing kinetics / bactericidal activity [10]: bactericidal activity similar to vancomycin; MIC B. subtilis ([1]; Table 5, B. subtilis ATCC 6633): 8 µg/mL; MIC E. faecalis ([2]; Table 5, E. faecalis ATCC 29121): 32 µg/mL; MIC against S. aureus [3]: 8 µg/mL; MIC against vanB vancomycin-resistant Enterococci [4]: 32 µg/mL; activity against vanB / low-level vancomycin-resistant strain [4]: high antibacterial activity; MIC against MRSA [5]: 32 µg/mL; activity against vanA / high-level vancomycin-resistant strain [6]: high antibacterial activity; MIC VRE (vanA) ([6]; Table 5, high level vancomycin resistant E. faecium ATCC 51559): 128 µg/mL; MIC E. coli ([7]; Table 5, E. coli ATCC 25992): >256 µg/mL; accumulation of UDP-MurNAc-pentapeptide [11]: accumulation of UDP-MurNAc-pentapeptide at levels similar to vancomycin; lysis / toxicity on red blood cells [8]: neither caused lysis of erythrocytes; activity against vancomycin-sensitive bacterial strains [9]: high antibacterial activity
